# Experimental data from US20060058394A1, “Medicine of post-traumatic stress disorder” (KYOTO UNIVERSITY, priority 2001, published 2006).
# Columns and labels:
# wild mice = test: Social behaviors on cohabiting with young male mice (smelling action); type: in vivo; conditions: wild mice cohabiting with young male mice (5 weeks of age)
# Excerpt: (§1) The action admitted when wild mice (WT) or EP1 receptor-deficient mice cohabit with young male mice (5 weeks of ages) was observed.
# WT mice = test: Action of jumping off platform; type: in vivo; conditions: 10 mg/kg i.p., about 20 cm high platform, 7 minutes, FIG. 5
# Description: Wild mice, EP1 or EP3 receptor-deficient mice, or WT mice to which 10 mg/kg of EP1 antagonist (the same as experiment example 1 was used.) was intraperitoneally administered put on about 20 cm high platform (beaker), and the presence of the action of jumping off was observed.
# ACTH in plasma = test: ACTH production by LPS induction; type: in vivo, C57BL/6 strain mice; conditions: wild type mice; LPS 0.1 mg/kg i.p.; blood 60 minutes after LPS; EP1 antagonist given 1 hour before LPS; FIG. 2
# Description: 0.1 mg/kg of LPS (lipopolysaccharide) as an infectious stress was intraperitoneally administered to C57BL/6 strain mice. The blood be gathered at 60 minutes later after administering LPS, the induced stress reaction, that is, activation of hypothalamus-pituitary-adrenal system were measured as a marker on ACTH in plasma. ACTH was measured with ACTH IRMA kit (Mitsubishi Yuka Medical Co., Tokyo, Japan). (4-[2-(N-isobutyl-2-furanylsulfonylamino)-5-trifluoromethylphenoxymethyl]cinna mic acid (the compound which had been described to example 18(94) in WO98/27053, was used.), which is EP1 antagonist, was administered 1 hour ago before administering LPS.
# C57BL/6 mice = test: Decrease of spontaneous locomotor activity by LPS induction; type: in vivo; conditions: wild mice; LPS 0.1 mg/kg i.p.; 0.1% (W/W) EP1 antagonist mixed with food; 12 hours, 8 p.m. to 8 a.m.; FIG. 4
# Description: 0.1 mg/kg of LPS is intraperitoneally administered to C57BL/6 mice, they are put in acrylic cage (30×45×35 cm (height), and the momentum for 12 hours from the 8 p.m. to 8 a.m. of next morning was measured with mouse action meter, Infrared photo beam counter (Neuroscience Co., Ltd., Tokyo, Japan). 0.1% (W/W) of EP1 antagonist (the same as experiment example 1 was used) mixed with food was given. Similarly, the difference of the momentum by administering LPS were compared by using wild mice (WT) and EP1 receptor-deficient mice.
# [1] = system: EP1 receptor-deficient mice; test: Spontaneous locomotor activity after administering haloperidol; type: in vivo; conditions: EP1 receptor-deficient mice given haloperidol
# Description: Furthermore, it was also confirmed that the spontaneous locomotor activity decreased when haloperidol was administered to EP1 receptor-deficient mice.
# [2] = system: EP1 receptor-deficient mice; test: Aggressive behavior after administering haloperidol; type: in vivo; conditions: EP1 receptor-deficient mice given haloperidol
# Description: After two male mice (wild mice (WT) or EP1 receptor-deficient mice) were put in 3 L of glass container and stimulated by the electroshock (1 H, 200 m seconds, 0.3 mA for 3 minutes), these aggressive behaviors were recorded to the video. The time up to the first aggressive behavior (latency; second) and the attack frequency, and total attack time was compared.
# as §1
# As a result of experiment similar to experiment example 6 by administering haloperidol to EP1 receptor-deficient mice, it was confirmed that the time up to the first attack elongates, the attack frequency decreases, and the total of attack time shortens.
Compound,time of the smelling action (wild mice),mice jumped off the platform (WT mice),amount of ACTH production by LPS-induction (ACTH in plasma),decrease of the spontaneous locomotor activity induced by LPS (C57BL/6 mice),spontaneous locomotor activity [1],attack frequency [2],time up to the first attack [2],total of attack time [2]
"CC(C)CN(c1ccc(C(F)(F)F)cc1OCc1ccc(C=CC(=O)O)cc1)S(=O)(=O)c1ccco1 [EP1 antagonist, 4-[2-(N-isobutyl-2-furanylsulfonylamino)-5-trifluoromethylphenoxymethyl]cinna mic acid]",shortened,All mice in the EP1 antagonist administrated group jumped off the platform 7 minutes later,significantly decreases,has decreased,–,–,–,–
O=C(CCCN1CCC(O)(c2ccc(Cl)cc2)CC1)c1ccc(F)cc1 [haloperidol],–,–,–,–,decreased,decreases,elongates,shortens
